US20230270678A1, “PHARMACEUTICAL COMPOSITIONS FOR IMPROVED DELIVERY OF THERAPEUTIC LIPOPHILIC ACTIVES” (KARNAK TECHNOLOGIES, LLC, priority 2020, published 2023)

System: Pseudomonas aeruginosa
Experiment: MIC (minimum inhibition concentration) against P. aeruginosa
Type: cell-based
Protocol: Compositions with clarithromycin were prepared by cold physical process. Powder clarithromycin compositions were dissolved in water to obtaining nanoemulsion. The control free clarithromycin was dissolved in 1% DMSO. Emulsion dried using lyophilization. Samples were tested in three independent experiments, with triplicate in each experiment. Particle size was measured using DLS. MIC data (minimum inhibition concentrations) of the formulated and free antibiotic were compared.

MIC: 0.0625%
Structure (SMILES): CC[C@H]1OC(=O)[C@H](C)[C@@H](O[C@H]2C[C@@](C)(OC)[C@@H](O)[C@H](C)O2)[C@H](C)[C@@H](O[C@@H]2O[C@H](C)C[C@H](N(C)C)[C@H]2O)[C@](C)(OC)C[C@@H](C)C(=O)[C@H](C)[C@@H](O)[C@]1(C)O [Free clarithromycin, clarithromycin]
